Data from patent US10155764B2, “Therapeutic compounds and uses thereof” (GENENTECH, INC., priority 2014, dated 2018).

Each compound was assayed against PCAF719-832 bromodomain (Homo sapiens (Human), UniProt Q92831) (assay: PCAF AlphaLisa binding assay). Conditions: PCAF bromodomain 225 nM, biotinylated small molecule ligand 6 nM.
PCAF719-832 bromodomain, sequence (Q92831 719-832): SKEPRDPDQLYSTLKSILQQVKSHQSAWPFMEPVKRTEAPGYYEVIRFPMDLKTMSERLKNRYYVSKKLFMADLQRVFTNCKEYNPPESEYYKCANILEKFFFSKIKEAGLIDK
Description: PCAF bromodomain binding and inhibition of the compounds disclosed herein was assessed by monitoring the engagement of biotinylated small molecule ligand (known to bind to the PCAF bromodomain) with the target using the AlphaLisa technology (Perkin-Elmer).

Question: Which IC50 does the source give for `CN(C)[C@H]1c2ccccc2C[C@H]1Nc1nn(C)c(=O)c2cccnc12` [Example 46B, 8-(((1S,2R)-1-(dimethylamino)-2,3-dihydro-1H-inden-2-yl)amino)-6-methylpyrido[2,3-d]pyridazin-5(6H)-one] here?
Answer: The IC50 was > 5000 nM.

Question: Which IC50 does the source give for `C[C@H](Nc1nn(C)c(=O)c2ccccc12)[C@H](c1ccccn1)N(C)C` (single isomer, unassigned) [Example 60] here?
Answer: The IC50 was 21 nM.

Question: Which IC50 does the source give for `CN(C)C(CNc1nn(C)c(=O)c2ccccc12)c1ccc(Cl)cc1` (racemic) [Example 27, 4-((2-(4-chlorophenyl)-2-(dimethylamino)ethyl)amino)-2-methylphthalazin-1(2H)-one] here?
Answer: Its IC50 is 120 nM.

Question: With `C[C@H](Nc1nn(C)c(=O)c2ccccc12)[C@H](c1ccc(O)cc1)N(C)C` [Example 76, 4-(((1S,2S)-1-(dimethylamino)-1-(4-hydroxyphenyl)propan-2-yl)amino)-2-methylphthalazin-1(2H)-one] as the compound, how does the IC50 read?
Answer: Its IC50 is 42 nM.

Question: For `CN(C)CCOc1nn(C)c(=O)c2ccccc12` [Example 48, 4-(2-(dimethylamino)ethoxy)-2-methylphthalazin-1(2H)-one], which IC50 is on record?
Answer: Its IC50 is 450 nM.

Question: Which IC50 does the source give for `CC[C@@H](CNc1nn(C)c(=O)c2ccccc12)N(C)C` (single isomer, unassigned) [Example 39A] here?
Answer: Its IC50 is 550 nM.

Question: Which IC50 does the source give for `C/C=C/Cn1nc(NC(C)CN(C)C)c2ccccc2c1=O` (racemic) [Example 31, (E)-2-(but-2-en-1-yl)-4-((1-(dimethylamino)propan-2-yl)amino)phthalazin-1(2H)-one] here?
Answer: Its IC50 is 8100 nM.

Question: With `C[C@H](Nc1nn(C)c(=O)c2ccccc12)[C@H](c1ccc(=O)[nH]c1)N(C)C` [Example 88, 4-(((1S,2S)-1-(dimethylamino)-1-(6-oxo-1,6-dihydropyridin-3-yl)propan-2-yl)amino)-2-methylphthalazin-1(2H)-one] as the compound, how does the IC50 read?
Answer: The IC50 was 80 nM.

Question: With `C[C@H](Nc1nn(C)c(=O)c2ccccc12)[C@H](c1ccc(S(=O)(=O)c2ccccc2)cc1)N(C)C` [Example 55, 4-(((1S,2S)-1-(dimethylamino)-1-(4-(phenylsulfonyl)phenyl)propan-2-yl)amino)-2-methylphthalazin-1(2H)-one] as the compound, how does the IC50 read?
Answer: The IC50 was 61 nM.

Question: Which IC50 does the source give for `Cn1nc(NCCN2CCCC2)c2ccccc2c1=O` [Example 24, 2-methyl-4-((2-(pyrrolidin-1-yl)ethyl)amino)phthalazin-1(2H)-one] here?
Answer: Its IC50 is 920 nM.

Question: How did the IC50 turn out when `CN(C)CCNc1nn(C)c(=O)c2ccccc12` [Example 29, 4-((2-(dimethylamino)ethyl)amino)-2-methylphthalazin-1(2H)-one] was run?
Answer: The IC50 was 150 nM.

Question: How did the IC50 turn out when `Cc1cccc2c(N[C@@H](C)[C@H](c3ccccc3)N(C)C)nn(C)c(=O)c12` (single isomer, unassigned) [Example 69A] was run?
Answer: The IC50 was > 5000 nM.

Question: For `CC[C@H](Nc1nn(C)c(=O)c2cccnc12)[C@H](c1ccccc1)N(C)C` (single isomer, unassigned) [Example 58], which IC50 is on record?
Answer: The IC50 was 40 nM.

Question: With `CN(C)[C@H](CNc1nn(C)c(=O)c2ccccc12)c1ccccc1` (single isomer, unassigned) [Example 22A] as the compound, how does the IC50 read?
Answer: Its IC50 is 47 nM.

Question: `CCn1nc(N[C@H](C)CN(C)C)c2ccccc2c1=O` (single isomer, unassigned) [Example 17A] was tested. Which IC50 did it give?
Answer: Its IC50 is > 5000 nM.

Question: How did the IC50 turn out when `CN1CCCC(Nc2nn(C)c(=O)c3ccccc23)C1` (racemic) [Example 43, 2-methyl-4-((1-methylpiperidin-3-yl)amino)phthalazin-1(2H)-one] was run?
Answer: Its IC50 is 790 nM.

Question: Which IC50 does the source give for `C[C@H](Nc1nn(C)c(=O)c2ccccc12)[C@H](c1cccnc1)N(C)C` (single isomer, unassigned) [Example 61] here?
Answer: The IC50 was 86 nM.

Question: With `CC[C@H](CNc1nn(C)c(=O)c2ccccc12)N(C)C` (single isomer, unassigned) [Example 39B] as the compound, how does the IC50 read?
Answer: Its IC50 is 89 nM.

Question: With `CN(C)C(CNc1nn(C)c(=O)c2ccccc12)c1ccc(F)cc1` (racemic) [Example 20, 4-((2-(dimethylamino)-2-(4-fluorophenyl)ethyl)amino)-2-methylphthalazin-1(2H)-one] as the compound, how does the IC50 read?
Answer: The IC50 was 110 nM.

Question: With `CC(CN(C)C)Nc1nn(C)c(=O)c2c1CCN(c1ccc(Cl)cc1)C2` (racemic) [Example 89, 6-(4-chlorophenyl)-1-((1-(dimethylamino)propan-2-yl)amino)-3-methyl-5,6,7,8-tetrahydropyrido[3,4-d]pyridazin-4(3H)-one] as the compound, how does the IC50 read?
Answer: The IC50 was 1200 nM.

Question: How did the IC50 turn out when `COc1ccc(C(CNc2nn(C)c(=O)c3ccccc23)N(C)C)cc1` (racemic) [Example 21, 4-((2-(dimethylamino)-2-(4-methoxyphenyl)ethyl)amino)-2-methylphthalazin-1(2H)-one] was run?
Answer: Its IC50 is 64 nM.

Question: `CN(C)[C@H]1CCCC[C@H]1Nc1nn(C)c(=O)c2cccnc12` (single isomer, unassigned) [Example 15A] was tested. Which IC50 did it give?
Answer: The IC50 was 78 nM.

Question: With `C[C@@H](Nc1nn(C)c(=O)c2ccccc12)[C@@H](c1ccccc1)N(C)C` (single isomer, unassigned) [Example 73B] as the compound, how does the IC50 read?
Answer: Its IC50 is 680 nM.

Question: Which IC50 does the source give for `CN(C)C(CNc1nn(C)c(=O)c2ccccc12)c1ccccc1` (racemic) [Example 22, 4-((2-(dimethylamino)-2-phenylethyl)amino)-2-methylphthalazin-1(2H)-one] here?
Answer: The IC50 was 140 nM.

Question: For `CN(C)[C@@H](CNc1nn(C)c(=O)c2ccccc12)c1ccccc1` (single isomer, unassigned) [Example 22B], which IC50 is on record?
Answer: Its IC50 is 550 nM.

Question: Which IC50 does the source give for `CNC(=O)c1ccc([C@@H]([C@H](C)Nc2nn(C)c(=O)c3cccnc23)N(C)C)cc1` (single isomer, unassigned) [Example 85] here?
Answer: The IC50 was 50 nM.

Question: Which IC50 does the source give for `CC(C)OC(=O)c1ccc([C@@H]([C@H](C)Nc2nn(C)c(=O)c3cccnc23)N(C)C)cc1` [Example 86, Isopropyl 4-((1S,2S)-1-(dimethylamino)-2-((6-methyl-5-oxo-5,6-dihydropyrido[2,3-d]pyridazin-8-yl)amino)propyl)benzoate] here?
Answer: Its IC50 is 30 nM.

Question: How did the IC50 turn out when `Cn1nc(NC2CNC2)c2ncccc2c1=O` [Example 19, 8-(azetidin-3-ylamino)-6-methylpyrido[2,3-d]pyridazin-5(6H)-one] was run?
Answer: The IC50 was 3400 nM.

Question: How did the IC50 turn out when `CC(CN(C)C)Nc1nn(C)c(=O)c2c1CN(c1ccc(Cl)cc1)CC2` (racemic) [Example 90, 6-(4-chlorophenyl)-4-((1-(dimethylamino)propan-2-yl)amino)-2-methyl-5,6,7,8-tetrahydropyrido[3,4-d]pyridazin-1(2H)-one] was run?
Answer: Its IC50 is 820 nM.

Question: `CN(C)[C@@H]1c2ccccc2C[C@@H]1Nc1nn(C)c(=O)c2ccccc12` [Example 47A, 4-(((1R,2S)-1-(dimethylamino)-2,3-dihydro-1H-inden-2-yl)amino)-2-methylphthalazin-1(2H)-one] was tested. Which IC50 did it give?
Answer: The IC50 was 2700 nM.

Question: Which IC50 does the source give for `Cn1nc(NCCN2CCCCC2)c2ccccc2c1=O` [Example 41, 2-methyl-4-((2-(piperidin-1-yl)ethyl)amino)phthalazin-1(2H)-one] here?
Answer: Its IC50 is 2200 nM.

Question: Which IC50 does the source give for `CN(C)CCNc1nn(C)c(=O)c2cccc(F)c12` [Example 5, 4-((2-(dimethylamino)ethyl)amino)-5-fluoro-2-methylphthalazin-1(2H)-one] here?
Answer: The IC50 was 130 nM.

Question: How did the IC50 turn out when `C[C@@H](Nc1nn(C)c(=O)c2cccnc12)[C@@H](c1ccc(S(=O)(=O)c2ccccc2)cc1)N(C)C` (single isomer, unassigned) [Example 74B] was run?
Answer: Its IC50 is 2300 nM.

Question: For `CCC(CNc1nn(C)c(=O)c2ccccc12)N(C)C` (racemic) [Example 39, 4-((2-(dimethylamino)butyl)amino)-2-methylphthalazin-1(2H)-one], which IC50 is on record?
Answer: Its IC50 is 180 nM.

Question: For `CCn1nc(N[C@@H](C)CN(C)C)c2ccccc2c1=O` (single isomer, unassigned) [Example 17B], which IC50 is on record?
Answer: The IC50 was 280 nM.
